Tests used:
[1] = test system: CD69 expression on T-cells; assay: CD69 expression on T-cells incubated with or without autologous monocytes (MO), flow cytometry; assay type: cell-based, human
Method: To study the activation characteristics of T-cells in the presence and absence of MO, T-cell activation compounds, H2-receptor agonists, and H2O2 scavengers, peripheral venous blood was obtained as freshly prepared leukopacks from healthy blood donors at the Blood Centre, Sahlgren's Hospital, Göteborg, Sweden. The blood (65 ml) was mixed with 92.5 ml Iscove's medium, 35 ml 6% Dextran (Kabi Pharmacia, Stockholm, Sweden) and 7.5 ml acid citrate dextrose (ACD) (Baxter, Deerfield, Ill.). After incubation for 15 minutes at room temperature, the supernatant was carefully layered onto Ficoll-Hypaque (Lymphoprep, Myegaard, Norway). Mononuclear cells (MNC) were collected at the interface after centrifugation at 380 g for 15 minutes at room temperature, washed twice in PBS and resuspended in Iscove's medium supplemented with 10% human AB^+ serum. During all further separation of cells, the cell suspensions were kept in siliconized test tubes (Vacuette, Greiner, Stockholm).
The MNC were further separated into lymphocyte and monocyte (MO) populations using the counter-current centrifugal elutriation (CCE) technique originally described by Yasaka and co-workers (Yasaka, T. et al., J. Immunol., 127:1515) with modifications as described in Hansson, M., et al. (J. Immunol., 156: 42 (1996); hereby incorporated by reference). Briefly, the MNC were resuspended in elutration buffer containing 0.05% BSA and 0.015% EDTA in buffered NaCl and fed into a Beckman J2-21 ultracentrifuge with a JE-6B rotor at 2100 rpm. A fraction with >90% MO was obtained at a flow rate of 18 ml/min. A lymphocyte fraction enriched for NK-cells (CD3^−/56^+ phenotype) and T-cells (CD3^+/56^−) was recovered at flow rates of 14-15 ml/min. […] In some experiments, dynabeads (Dynal A/S, Oslo, Norway) coated with anti-CD56 were used to obtain purified lymphocyte preparations of T-cells, as described in detail by Hansson, M., et al., incorporated above.
Flow cytometry was used in the experiments described below to identify the various sub-populations of T-cells. Flow cytometry permits an investigator to examine a population of cells using a number of labeled probes to differentiate sub-populations within the larger whole. In these experiments, the CD3 marker was used to identify the subpopulation of T-cells and the CD4 and CD8 markers were used to further identify the subpopulation of T-cells into T helper cells and CTLs. The effects of MO exposure in the presence and absence of histamine and T-cell activation compounds were determined using the CD69 T-cell activation marker. The expression of the different markers was estimated in a lymphocyte gate using flow cytometry (as described in Hellstrand, K., et al. Cell. Immunol. 138: 44-54 (1991), and hereby incorporated by reference).
The following protocol was used in experiments reporting the detection of surface antigens of cell populations. One million cells were incubated with appropriate fluorescein isothiocynate (FITC) and phycoerythrin (PE) conjugated monoclonal antibodies (Becton & Dickinson, Stockholm, Sweden; 1:1/10^6 cells), on ice for 30 minutes. The cells were washed twice in PBS and resuspended in 500:1 sterile filtered PBS and analyzed by use of flow cytometry on a FACSort with a Lysys II software program (Becton & Dickenson). Lymphocytes were gated on the basis of forward and right angle scatter. The flow rate was adjusted to <200 cells×s^− and at least 5×10^3 cells were analyzed for each sample, if not otherwise stated.
Isolated peripheral blood lymphocytes (150,000 cells/well in a total volume of 0.2 ml) were incubated in microplates for 16 hours at 37° C. in the presence or absence of autologous MO.

H2 receptor = H2 receptor (Homo sapiens, UniProt P25021); settings: cited from earlier work
T-cells and NK-cells = assay: MO-induced cell death (apoptosis) of T-cells and NK-cells, flow cytometry; assay type: cell-based, human
Method: In this Example, apoptotic morphology of lymphocytes exposed to MO was monitored by staining cells with a dye mix containing acridine orange (10:g/ml; Sigma) and ethidium bromide (10:g/ml; Sigma), both prepared in phosphate buffered saline. One microliter (1:1) of dye mix was added to 25:1 of cells suspension (1-2×10^6/ml) in siliconized test tubes. Thereafter, 10:1 of the cell suspension was placed on a glass slide and immediately counted in a fluorescence microscope (Nikon) under times forty (×40) magnification with qualification of dead, living, apoptotic and non-apoptotic cells. (See Hellstrand, K., et al. J. Immunol., 153: 4940-4947 (1994); Hansson, M., et al., J. Immunol. 156:42-47 (1996)).
(See Hansson M., et al., supra). Cell death in lymphocytes was monitored by gating nonviable T-cells or NK-cells after exposure to MO, with and without histamine or catalase. A gate with reduced forward scatter and increased right angle scatter characteristic of apoptosis was employed in these studies. (See Hansson M., et al., supra; Mizgerd J. P., et al., J. Leukoc. Biol. 59:189 (1996); herein incorporated by reference; gate also described in Example 1).

NK cells [2] = settings: cited from earlier work
NK cells [3] = settings: absence of monocytes; cited from earlier work
lymphocytes = settings: cited from earlier work
[4] = test system: T-cell enriched lymphocytes; assay type: cell-based, human
[5] = test system: herpes simplex virus (HSV); settings: single dose of histamine; cited from earlier work
[6] = test system: CD3e+ T-cells and CD56+ NK-cells; settings: cited from earlier work

H2 receptor, sequence (P25021 whole entry): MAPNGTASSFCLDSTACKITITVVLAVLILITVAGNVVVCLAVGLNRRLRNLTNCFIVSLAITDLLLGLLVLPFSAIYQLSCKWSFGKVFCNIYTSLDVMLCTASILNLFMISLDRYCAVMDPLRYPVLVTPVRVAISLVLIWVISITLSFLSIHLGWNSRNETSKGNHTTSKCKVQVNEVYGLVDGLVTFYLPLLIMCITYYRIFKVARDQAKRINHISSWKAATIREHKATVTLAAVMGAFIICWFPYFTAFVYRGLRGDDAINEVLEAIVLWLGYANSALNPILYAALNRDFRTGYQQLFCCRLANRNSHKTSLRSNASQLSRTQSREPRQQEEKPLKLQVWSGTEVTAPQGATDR

Compound: CNC(=C[N+](=O)[O-])NCCOCc1ccc(CN(C)C)o1 [AH20399AA]
- antagonism of the histamine response on cytokine-induced CD69 expression ([1]; equimolar or 10-fold lower concentrations than histamine): did not block
- reduction of affinity for the H2 receptor relative to ranitidine (H2 receptor): > 50 fold
- reversal of the histamine effect on MO-induced cell death (T-cells and NK-cells; concentrations equimolar to 10-fold lower than histamine): not

Compound: CN(C)CCCSC(=N)N [dimaprit]
- action on histamine's effect on granulocyte mediated suppression of NK cell antibody dependent cytotoxicity (NK cells [2]): mimicked

Compound: NCCc1c[nH]cn1 [histamine]
- effect on NK mediated cytotoxicity (NK cells [3]): no effect or weakly suppressed
- effect on lymphocyte proliferation in response to phytohemagglutinin or staphylococcal enterotoxin type A (lymphocytes): reduce the proliferation
- effect on CD69 expression in CD3+ and CD4+ T-cells incubated with IFN-α ([1]; MO present vs. absence of MO): enhanced the expression of CD69 to a significantly higher level
- effect on MO-induced inhibition of IL-2 induced acquisition of CD69 in T-cells ([1]; histamine 50 :M, IL-2 100 U/ml, with MO): counteracted
- effect on CD69 expression in non-stimulated or cytokine-activated T-cells ([1]; histamine 50 :M, incubated without MO): did not significantly alter
- effect on CD69 expression in CD8+ cells activated with IFN-α ([1]; with MO): restored by histamine to the level observed in pure lymphocytes
- ED50 of effect on cytokine-induced expression of CD69 in T-cells ([1]; with MO, histamine 0.1-50:M, dose-dependent): approximately 2 :M
- effect on vaccine-induced proliferation [4]: strongly potentiated
- proliferation of cells not treated with the vaccine [4]: slightly augmented
- survival time of HSV-inoculated animals [5]: prolong survival time
- prevention of MO-induced cell death (T-cells and NK-cells; all subsets of T-cells and NK-cells, histamine 50 :M, 16 hours): > 80%

Compound: OO [hydrogen peroxide]
- concentration required to induce apoptosis in CD3e+ T-cells relative to CD56+ NK-cells [6]: Approximately 5 fold

Compound: CNC(=C[N+](=O)[O-])NCCSCc1ccc(CN(C)C)o1 [ranitidine]
- action on histamine's effect on granulocyte mediated suppression of NK cell antibody dependent cytotoxicity (NK cells [2]): blocked

Compound: IFN-α
- change of IFN-α-induced CD69 in CD3e+ cells by the addition of MO ([1]; IFN-α, with vs. without MO): seemingly unchanged
- induction of CD69 in CD3e+ cells ([1]; in response to IFN-α (100 U/ml)): ~10%
- induction of CD69 in CD4+ cells compared with IL-2 ([1]; incubated without MO, p<0.01): less effective than IL-2
- IFN-α induced level of CD69 on CD4+ cells when MO were added ([1]; with vs. without MO, p<0.05): significantly higher
- effect of concomitant treatment on MO-induced cell death and on histamine protection (T-cells and NK-cells; 100 U/ml): unaffected

Compound: catalase
- effect on induction of CD69 in the absence of MO ([1]; absence of MO): did not affect
- effect on MO-induced inhibition of cytokine-induced CD69 expression ([1]; catalase 10-200 U/ml, IL-2 100 U/ml, with MO): significantly reversed
- effect of catalase alone on percentage of CD3+ cells expressing CD69 ([1]; catalase alone, 0 to 200 U/ml, with MO): little effect
- percentage of CD3+ cells expressing the CD69 marker ([1]; with MO, IL-2 100 U/ml, catalase 200 U/ml): ~11%
- mimicking of the histamine effect on MO-induced cell death (T-cells and NK-cells): mimicked

From US20030039628A1, “Activation and protection of T-cells (CD4+ and CD8+) using an H2 receptor agonist and other T-cell activating agents” (priority 1998, published 2003)
